Here are results for 7 molecules from DBAASP.

Test systems include Staphylococcus capitis 1; Bacillus megaterium Bm11; Streptococcus agalactiae; Shigella flexneri; Staphylococcus aureus; Pseudomonas aeruginosa; Bacillus subtilis 168; Escherichia coli B; Staphylococcus aureus 1; Escherichia coli MH1.
Holding throughout (experiment): ≥ marks a high value that may be exact or a test limit, other limits are often not marked, values filed in µg/mL are converted to µM
In experiment [1] the test system is Yersinia pseudotuberculosis YPIII.
The test system of experiment [2] is Staphylococcus aureus Cowan 1.
In experiment [3] the test system is Candida albicans ATCC 10231.
Experiment [4] has as its system Escherichia coli ATCC 25922.
In experiment [5] the test system is Listeria monocytogenes ATCC 7644.
Experiment [6] has as its system Salmonella enterica subsp. enterica serovar Typhi ATCC 6399.
In experiment [7] the test system is Bacillus subtilis ATCC 6633.
The subject of experiment [8] is Staphylococcus aureus ATCC 25923.
The test system of experiment [9] is Candida albicans F7-39/IDE99.
In experiment [10] the test system is Staphylococcus aureus ATCC 43300.
The subject of experiment [11] is Pseudomonas aeruginosa ATCC 27853.
In experiment [12] the test system is Micrococcus luteus CCM 144.
Experiment [13] relates to Staphylococcus epidermidis.
Experiment [14] has as its system Staphylococcus aureus IFO 12732.
The subject of experiment [15] is Escherichia coli IFO 12734.
Experiment [16] concerns Bacillus subtilis IFO 3513.
The subject of experiment [17] is Acinetobacter sp. DSM 586.
Experiment [18] deals with Bacillus subtilis VKM B-501.
Experiment [19] concerns Saccharomyces cerevisiae Y190.
The test system of experiment [20] is Pseudomonas aeruginosa PAO1.
Experiment [21] relates to Staphylococcus xylosus DSM 20267.
Experiment [22] concerns Bacillus subtilis subsp. spizizenii DSM 347.
Experiment [23] relates to Arthrobacter globiformis VKM Ac-1112.
Experiment [24] deals with Escherichia coli DH5alpha.
Experiment [25] relates to Escherichia coli DSM 1116.

Each structure is given as a SMILES string. ≈ marks a conversion by molar mass, not a printed value.

The term MIC denotes the smallest concentration in the dilution series that meets the test's criterion for growth inhibition. A low value points to greater potency. On to `CC[C@H](C)[C@H](NC(=O)CNC(=O)[C@H](CO)NC(=O)[C@H](CC(C)C)NC(=O)[C@@H](NC(=O)[C@H](CCCN=C(N)N)NC(=O)CNC(=O)[C@@H](NC(=O)[C@H](CC(C)C)NC(=O)[C@H](C)NC(=O)[C@H](CC(C)C)NC(=O)[C@@H](N)Cc1ccccc1)[C@@H](C)CC)C(C)C)C(=O)N[C@@H](CC(C)C)C(N)=O` [FLALIGRVLSGIL], for which the minimum inhibitory concentration (MIC) in experiment [1] was 20 µM (≈ 27.4 µg/mL); with Staphylococcus capitis 1, 2.5 µM (≈ 3.43 µg/mL); in experiment [2], 2.5 µM (≈ 3.43 µg/mL); in the experiment with Bacillus megaterium Bm11, 2.5 µM (≈ 3.43 µg/mL); in [3], 1.25 µM (≈ 1.71 µg/mL); in [4], > 40 µM.
`CC[C@H](C)[C@H](NC(=O)[C@H](CC(C)C)NC(=O)[C@H](CCCCN)NC(=O)[C@H](CC(C)C)NC(=O)[C@H](C)NC(=O)CNC(=O)[C@H](CCCCN)NC(=O)[C@H](C)NC(=O)[C@H](CC(C)C)NC(=O)[C@H](C)NC(=O)CNC(=O)[C@H](Cc1c[nH]c2ccccc12)NC(=O)[C@@H](N)Cc1ccccc1)C(=O)NCC(=O)N[C@H](C(=O)N[C@@H](CO)C(=O)N[C@@H](CC(C)C)C(=O)N[C@@H](Cc1ccccc1)C(=O)N[C@@H](CO)C(=O)N[C@@H](CO)C(=O)N[C@@H](Cc1ccccc1)C(=O)N[C@@H](CO)C(=O)N[C@@H](CCCCN)C(=O)N[C@@H](CCCCN)C(=O)N[C@@H](CC(=O)O)C(=O)O)C(C)C` [FWGALAKGALKLIGVSLFSSFSKKD]: the minimal inhibitory concentration (MIC) against Streptococcus agalactiae was ≥ 300 µM; in experiment [5], ≥ 300 µM; in experiment [6] it was ≥ 300 µM; in experiment [7] it was ≥ 300 µM; in experiment [8], 300 µM (≈ 801 µg/mL); in experiment [4], 300 µM (≈ 801 µg/mL). In addition, the minimal inhibitory concentration (MIC) with Shigella flexneri is ≥ 300 µM.
As to `CC[C@H](C)[C@H](NC(=O)[C@H](CC(C)C)NC(=O)[C@H](CCCCN)NC(=O)[C@H](CC(C)C)NC(=O)[C@H](C)NC(=O)CNC(=O)[C@H](CCCCN)NC(=O)[C@H](C)NC(=O)[C@H](CC(C)C)NC(=O)[C@H](C)NC(=O)CNC(=O)[C@H](Cc1c[nH]c2ccccc12)NC(=O)[C@@H](N)Cc1ccccc1)C(=O)N[C@H](C(=O)NCC(=O)N[C@@H](CO)C(=O)N[C@@H](CC(C)C)C(=O)N[C@@H](Cc1ccccc1)C(=O)N[C@@H](CO)C(=O)N[C@@H](CO)C(=O)N[C@@H](Cc1ccccc1)C(=O)N[C@@H](CO)C(=O)N[C@@H](CCCCN)C(=O)N[C@@H](CCCCN)C(=O)N[C@@H](CC(=O)O)C(=O)O)C(C)C` [FWGALAKGALKLIVGSLFSSFSKKD], the MIC with Streptococcus agalactiae is ≥ 300 µM; in experiment [5], ≥ 300 µM; in experiment [6] it was ≥ 300 µM; in experiment [7] it was ≥ 300 µM; in experiment [8], 300 µM (≈ 801 µg/mL); in experiment [4], 300 µM (≈ 801 µg/mL). In the experiment on Shigella flexneri, the MIC is ≥ 300 µM.
Regarding `CC[C@H](C)[C@H](NC(=O)CN)C(=O)N[C@@H](CCSC)C(=O)N[C@@H](CO)C(=O)N[C@@H](CO)C(=O)N[C@@H](CC(C)C)C(=O)N[C@@H](CCSC)C(=O)N[C@@H](CCCCN)C(=O)N[C@@H](CCCCN)C(=O)N[C@@H](CC(C)C)C(=O)N[C@@H](C)C(=O)N[C@@H](CCCCN)C(=O)N[C@@H](Cc1cnc[nH]1)C(=O)N[C@H](C(=O)N[C@@H](C)C(=O)N[C@@H](CCCCN)C(N)=O)[C@@H](C)CC` [GIMSSLMKKLAKHIAK], the MIC in experiment [9] was found to be 14 µM (≈ 24.6 µg/mL); against Staphylococcus aureus, 63 µM (≈ 111 µg/mL); against Pseudomonas aeruginosa it was 20 µM (≈ 35.1 µg/mL); in the experiment with Bacillus subtilis 168 it was 7 µM (≈ 12.3 µg/mL); in experiment [10] it was 63 µM (≈ 111 µg/mL); in experiment [11], 7.9 µM (≈ 13.9 µg/mL). The minimal inhibitory concentration (MIC) in experiment [12] was 3 µM (≈ 5.27 µg/mL); in experiment [13], 6.2 µM (≈ 10.9 µg/mL); against Escherichia coli B, 15 µM (≈ 26.3 µg/mL); with Staphylococcus aureus 1 it was ≥ 35 µM.
Consider `CC[C@H](C)[C@H](N)C(=O)N[C@@H](CC(C)C)C(=O)N1CCC[C@H]1C(=O)N[C@@H](CCCCN)C(=O)N[C@@H](CCCCN)C(=O)N[C@@H](Cc1c[nH]c2ccccc12)C(=O)N1CCC[C@H]1C(=O)N[C@@H](CCCCN)C(=O)N[C@@H](CC(C)C)C(=O)N1CCC[C@H]1C(=O)N[C@@H](Cc1c[nH]c2ccccc12)C(=O)N[C@@H](CCCN=C(N)N)C(=O)N[C@@H](CCCN=C(N)N)C(N)=O` [ILPKKWPKLPWRR], for which the MIC amounted to 3.64 µM (≈ 6.25 µg/mL) in experiment [14], 29.1 µM (≈ 50 µg/mL) in experiment [15] and 1.82 µM (≈ 3.13 µg/mL) in [16].
Turning to `CC[C@H](C)[C@H](N)C(=O)N[C@@H](CC(C)C)C(=O)N1CCC[C@H]1C(=O)N[C@@H](Cc1c[nH]c2ccccc12)C(=O)N[C@@H](CCCCN)C(=O)N[C@@H](CC(C)C)C(=O)N1CCC[C@H]1C(=O)N[C@@H](Cc1c[nH]c2ccccc12)C(=O)N[C@@H](Cc1c[nH]c2ccccc12)C(=O)N1CCC[C@H]1C(=O)N[C@@H](Cc1c[nH]c2ccccc12)C(=O)N[C@@H](CCCN=C(N)N)C(=O)N[C@@H](CCCN=C(N)N)C(N)=O` [ILPWKLPWWPWRR], the MIC turned out to be 0.851 µM (≈ 1.56 µg/mL) in [14], 13.6 µM (≈ 25 µg/mL) in [15] and 1.71 µM (≈ 3.13 µg/mL) in [16].
Regarding `CSCC[C@H](NC(=O)CNC(=O)[C@H](CO)NC(=O)[C@H](Cc1c[nH]c2ccccc12)NC(=O)[C@H](CCSC)NC(=O)[C@@H](N)CO)C(=O)N[C@@H](Cc1c[nH]c2ccccc12)C(=O)N[C@@H](CCCN=C(N)N)C(=O)N[C@@H](CCCN=C(N)N)C(=O)N[C@@H](CCCCN)C(=O)N[C@@H](CC(C)C)C(=O)N[C@@H](CCCCN)C(=O)N[C@@H](CCCCN)C(=O)N[C@@H](CC(C)C)C(=O)N[C@@H](CCCN=C(N)N)C(=O)N[C@@H](CC(N)=O)C(=O)N[C@@H](C)C(=O)N[C@@H](CC(C)C)C(=O)N[C@@H](CCCCN)C(=O)N[C@@H](CCCCN)C(=O)N[C@@H](CCCCN)C(=O)N[C@@H](CC(C)C)C(=O)N[C@@H](CCCCN)C(=O)NCC(=O)N[C@@H](CCC(=O)O)C(=O)O` [SMWSGMWRRKLKKLRNALKKKLKGE], the minimal inhibitory concentration (MIC) was 1.3 µM (≈ 4 µg/mL) in [17]; 1 µM (≈ 3.07 µg/mL) in experiment [18]; ≥ 33 µM in experiment [19]; 4.1 µM (≈ 12.6 µg/mL) in [20]; 1.3 µM (≈ 4 µg/mL) in experiment [21]; 1.3 µM (≈ 4 µg/mL) in experiment [22]. The MIC in experiment [23] amounted to 0.5 µM (≈ 1.54 µg/mL); with Escherichia coli MH1, 0.7 µM (≈ 2.15 µg/mL); in [24] it was 1 µM (≈ 3.07 µg/mL); in experiment [25], 1.3 µM (≈ 4 µg/mL).
